For twelve molecules, T/C results are on record in PubChem BioAssay AID328 (DTP/NCI, 2004).

Values joined by “and” are separate entries in the source; they are usually repeats but may differ in a detail not shown here. Identical values can stand only once. Toxic doses and inconclusive results are not listed.

The subject of the test is BDF1 mice, P388 leukemia ip, median survival T/C. As to the kind of experiment: NCI In Vivo Anticancer Drug Screen. Data for tumor model P388 Leukemia (intraperitoneal) in B6D2F1 (BDF1) mice. To be noted: endpoint: median survival time, higher = longer survival. Put shortly:
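Mice carrying the transplantable tumour receive compound or vehicle. Survival is followed in each arm, and the treated measure is divided by the vehicle measure.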

[1] abbreviates: dose: 50.0 mg/kg/injection, schedule: Q01DX009 (ip), vehicle: water.
Setting [2] is: dose: 100.0 mg/kg/injection, schedule: Q01DX009 (ip), vehicle: water.
Where [3] appears, read: dose: 100.0 mg/kg/injection, schedule: Q04DX003 (ip), vehicle: water.
The mark [4] stands for this setting: dose: 200.0 mg/kg/injection, schedule: Q04DX003 (ip), vehicle: water.
The mark [5] stands for this setting: dose: 400.0 mg/kg/injection, schedule: Q01DX009 (ip), vehicle: water.
The mark [6] stands for this setting: dose: 400.0 mg/kg/injection, schedule: Q04DX003 (ip), vehicle: water.
Setting [7] is: dose: 50.0 mg/kg/injection, schedule: Q01DX009 (ip), vehicle: saline with Tween-80.
[8] abbreviates: dose: 100.0 mg/kg/injection, schedule: Q01DX009 (ip), vehicle: saline with Tween-80.
Where [9] appears, read: dose: 50.0 mg/kg/injection, schedule: Q04DX003 (ip), vehicle: saline with Tween-80.
The mark [10] stands for this setting: dose: 100.0 mg/kg/injection, schedule: Q04DX003 (ip), vehicle: saline with Tween-80.

In the case of `COc1ccc(C(=O)/C=C/c2ccc(OCc3ccccc3)c(OC)c2)cc1OC`, the T/C under setting [1] is 111 % of control; the T/C (dose: 50.0 mg/kg/injection, schedule: Q04DX003 (ip), vehicle: water) was 101 % of control; the T/C under setting [2] was 114 % of control; the T/C under setting [3] is 94 % of control; the T/C (dose: 200.0 mg/kg/injection, schedule: Q01DX009 (ip), vehicle: water) was 104 % of control; the T/C under setting [4] was 102 % of control. The T/C is 114 % of control under setting [5] and 100 % of control under setting [6].

For `O=[N+]([O-])c1ccc(NS(=O)(=O)c2cc(Cl)ccc2Cl)c(C(F)(F)F)c1`, the T/C is, setting by setting: under setting [7], 96 % of control; under setting [8], 100 % of control.

Turning to `COc1ccc(/C=C/C(=O)c2ccccc2)cc1OC`, the T/C reads like this: (dose: 37.5 mg/kg/injection, schedule: Q01DX009 (ip), vehicle: Klucel (hydroxypropylcellulose) (HPC)) 117 % of control; under setting [1], 92 % of control; (dose: 75.0 mg/kg/injection, schedule: Q01DX009 (ip), vehicle: Klucel (hydroxypropylcellulose) (HPC)) 111 % of control; (dose: 100.0 mg/kg/injection, schedule: Q01DX006 (ip), vehicle: water) 115 % of control; (dose: 100.0 mg/kg/injection, schedule: Q01DX009 (ip), vehicle: Klucel (hydroxypropylcellulose) (HPC)) 105 % of control; under setting [2], 115 % of control. The T/C was 113 % of control (dose: 100.0 mg/kg/injection, schedule: Q04DX003 (ip), vehicle: Klucel (hydroxypropylcellulose) (HPC)); 86 % of control under setting [3]; 105 % of control (dose: 150.0 mg/kg/injection, schedule: Q01DX009 (ip), vehicle: Klucel (hydroxypropylcellulose) (HPC)); 108 % of control (dose: 200.0 mg/kg/injection, schedule: Q01DX006 (ip), vehicle: water); 100 % of control (dose: 200.0 mg/kg/injection, schedule: Q01DX009 (ip), vehicle: Klucel (hydroxypropylcellulose) (HPC)); 90 % of control (dose: 200.0 mg/kg/injection, schedule: Q04DX003 (ip), vehicle: Klucel (hydroxypropylcellulose) (HPC)). Moreover, the T/C by setting is: under setting [4], 100 % of control; (dose: 300.0 mg/kg/injection, schedule: Q01DX009 (ip), vehicle: Klucel (hydroxypropylcellulose) (HPC)) 107 % of control and 111 % of control; (dose: 400.0 mg/kg/injection, schedule: Q01DX006 (ip), vehicle: water) 150 % of control; (dose: 400.0 mg/kg/injection, schedule: Q01DX009 (ip), vehicle: Klucel (hydroxypropylcellulose) (HPC)) 109 % of control and 115 % of control; under setting [5], 124 % of control; (dose: 400.0 mg/kg/injection, schedule: Q04DX003 (ip), vehicle: Klucel (hydroxypropylcellulose) (HPC)) 100 % of control. Further, the T/C reads like this: under setting [6], 98 % of control; (dose: 500.0 mg/kg/injection, schedule: Q01DX006 (ip), vehicle: water) 161 % of control; (dose: 500.0 mg/kg/injection, schedule: Q01DX009 (ip), vehicle: Klucel (hydroxypropylcellulose) (HPC)) 100 % of control.

As for `O=c1ccc2cc(-c3c(Oc4cc5ccc(O)cc5oc4=O)ccc4ccc(=O)oc34)c(O)cc2o1`, the T/C is, setting by setting: (dose: 3.0 mg/kg/injection, schedule: Q01DX009 (ip), vehicle: saline) 96 % of control; (dose: 6.0 mg/kg/injection, schedule: Q01DX009 (ip), vehicle: saline) 111 % of control; (dose: 12.0 mg/kg/injection, schedule: Q01DX009 (ip), vehicle: saline) 105 % of control.

On to `COC(CN(C)C(=O)NC1CCCCC1)OC`, for which the T/C by setting is: under setting [9], 95 % of control; under setting [10], 100 % of control; (dose: 200.0 mg/kg/injection, schedule: Q04DX003 (ip), vehicle: saline with Tween-80) 100 % of control.

On to `O=NNc1ccccn1`, for which the T/C (dose: 3.12 mg/kg/injection, schedule: Q01DX009 (ip), vehicle: saline) is 105 % of control; the T/C (dose: 12.5 mg/kg/injection, schedule: Q01DX009 (ip), vehicle: saline) was 214 % of control; the T/C (dose: 25.0 mg/kg/injection, schedule: Q01DX009 (ip), vehicle: saline) is 112 % of control.

Regarding `CC[C@]1(O)C[C@H](OC2CC(N(C)C)C(OC3CC(O)C(O)C(C)O3)C(C)O2)c2c(cc3c(c2O)C(=O)c2c(O)ccc(O)c2C3=O)[C@H]1C(=O)OC` (some centres undefined), the T/C was 171 % of control (dose: 0.4 mg/kg/injection, schedule: Q01DX009 (ip), vehicle: Klucel (hydroxypropylcellulose) (HPC)); 158 % of control and 165 % of control (dose: 0.8 mg/kg/injection, schedule: Q01DX009 (ip), vehicle: Klucel (hydroxypropylcellulose) (HPC)); 201 % of control and 222 % of control (dose: 1.6 mg/kg/injection, schedule: Q01DX009 (ip), vehicle: Klucel (hydroxypropylcellulose) (HPC)); 185 % of control (dose: 3.46 mg/kg/injection, schedule: Q04DX003 (ip), vehicle: other); 217 % of control (dose: 5.76 mg/kg/injection, schedule: Q04DX003 (ip), vehicle: other); 105 % of control (dose: 9.6 mg/kg/injection, schedule: Q04DX003 (ip), vehicle: other).

For the molecule `O=C(/C=C/c1ccc(OCc2ccccc2)cc1)c1ccccn1`, the T/C runs as follows: under setting [7], 97 % of control; under setting [8], 98 % of control; (dose: 200.0 mg/kg/injection, schedule: Q01DX009 (ip), vehicle: saline with Tween-80) 96 % of control.

In the case of `COc1cc(O)c2c(c1)C1=C(C)C(C)(O)OC1=CC2=O` (centres undefined), the T/C by setting is: (dose: 100.0 mg/kg/injection, schedule: Q01DX001 (ip), vehicle: Klucel (hydroxypropylcellulose) (HPC)) 95 % of control; (dose: 200.0 mg/kg/injection, schedule: Q01DX001 (ip), vehicle: Klucel (hydroxypropylcellulose) (HPC)) 100 % of control; (dose: 400.0 mg/kg/injection, schedule: Q01DX001 (ip), vehicle: Klucel (hydroxypropylcellulose) (HPC)) 86 % of control.

In the case of `O/C(=C/C(=S)S)c1cccs1`, the T/C (dose: 0.1 mg/kg/injection, schedule: Q04DX003 (ip), vehicle: water) was 88 % of control; the T/C (dose: 0.2 mg/kg/injection, schedule: Q04DX003 (ip), vehicle: water) was 97 % of control; the T/C (dose: 0.39 mg/kg/injection, schedule: Q01DX009 (ip), vehicle: water) is 101 % of control; the T/C (dose: 0.4 mg/kg/injection, schedule: Q04DX003 (ip), vehicle: water) is 95 % of control; the T/C (dose: 0.78 mg/kg/injection, schedule: Q01DX009 (ip), vehicle: water) was 97 % of control; the T/C (dose: 0.8 mg/kg/injection, schedule: Q04DX003 (ip), vehicle: water) is 89 % of control. In addition, the T/C runs as follows: (dose: 1.56 mg/kg/injection, schedule: Q01DX009 (ip), vehicle: water) 92 % of control; (dose: 3.12 mg/kg/injection, schedule: Q01DX009 (ip), vehicle: water) 100 % of control; (dose: 6.25 mg/kg/injection, schedule: Q01DX009 (ip), vehicle: water) 102 % of control; (dose: 6.25 mg/kg/injection, schedule: Q04DX003 (ip), vehicle: water) 111 % of control; (dose: 12.5 mg/kg/injection, schedule: Q01DX009 (ip), vehicle: water) 94 % of control.

As for `NOCc1cccc([N+](=O)[O-])c1`, the T/C runs as follows: (dose: 50.0 mg/kg/injection, schedule: Q04DX003 (ip), vehicle: saline) 100 % of control; (dose: 100.0 mg/kg/injection, schedule: Q04DX003 (ip), vehicle: saline) 91 % of control; (dose: 200.0 mg/kg/injection, schedule: Q04DX003 (ip), vehicle: saline) 91 % of control.

For `O=C(CC(O)(C(F)(F)F)C(F)(F)F)c1ccco1`, the T/C runs as follows: (dose: 17.0 mg/kg/injection, schedule: Q01DX009 (ip), vehicle: saline) 100 % of control; (dose: 25.0 mg/kg/injection, schedule: Q01DX009 (ip), vehicle: saline with Tween-80) 123 % of control; (dose: 33.0 mg/kg/injection, schedule: Q01DX009 (ip), vehicle: saline) 100 % of control; (dose: 50.0 mg/kg/injection, schedule: Q01DX009 (ip), vehicle: saline) 100 % of control; under setting [9], 120 % of control; (dose: 75.0 mg/kg/injection, schedule: Q01DX009 (ip), vehicle: saline) 100 % of control. Also, the T/C runs as follows: under setting [8], 123 % of control; under setting [10], 120 % of control.
